The text below walks through data of patent publication US8877801B2, “Compounds and compositions as selective estrogen receptor degraders” (Novartis AG, priority 2013, dated 2014).

Like-named read-outs stand apart in the source and are kept apart here.

As a reminder, the IC50 is the concentration that inhibits the measured activity by half.

For one assay, the target named is T1, ER (Homo sapiens, UniProt P03372).
T1 construct: transfected in MCF7 cells (containing endogenous ER); endogenous in cells; host or cells: MCF7 cells
T1 sequence (P03372 1-595): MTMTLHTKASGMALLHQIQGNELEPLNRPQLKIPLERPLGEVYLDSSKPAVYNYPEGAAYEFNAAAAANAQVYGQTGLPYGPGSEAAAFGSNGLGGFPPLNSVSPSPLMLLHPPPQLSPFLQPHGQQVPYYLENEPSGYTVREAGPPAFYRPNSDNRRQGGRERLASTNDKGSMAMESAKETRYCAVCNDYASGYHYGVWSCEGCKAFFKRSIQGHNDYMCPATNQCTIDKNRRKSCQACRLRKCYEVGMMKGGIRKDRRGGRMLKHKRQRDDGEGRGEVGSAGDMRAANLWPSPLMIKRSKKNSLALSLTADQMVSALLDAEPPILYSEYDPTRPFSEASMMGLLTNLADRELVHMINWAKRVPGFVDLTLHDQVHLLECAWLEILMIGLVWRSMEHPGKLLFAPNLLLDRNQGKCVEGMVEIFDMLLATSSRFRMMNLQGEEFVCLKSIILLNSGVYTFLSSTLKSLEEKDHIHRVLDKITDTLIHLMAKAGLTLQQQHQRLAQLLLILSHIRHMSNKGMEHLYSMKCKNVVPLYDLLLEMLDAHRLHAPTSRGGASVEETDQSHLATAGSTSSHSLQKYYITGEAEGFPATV
The experiment in a line: ER transcription assay (MCF7 cells), ERE-luciferase reporter. The format is cell-based.

The target of another assay is T2, ERα (Homo sapiens, UniProt P03372).
T2 construct: transfected in MCF7 cells (containing endogenous ER); endogenous in cells; host or cells: MCF7 cells
T2 sequence (P03372 1-595): T1 sequence (P03372 1-595)
The experiment in a line: ERα degradation (MCF7 cells), in-cell Western. The format is cell-based. The conditions noted are these: for % ERα remaining: 10 μM concentration of the ligand, MCF7 cells, 18-24 hours, relative to DMSO control. The method, then: ERα Degradation (MCF7 Cells)
The data describing the antagonist and degradation properties for the examples is compiled in table 10. The column titled MCF7 IC50 reports the inflection point of the inhibition of transcription in MCF7 cells as described above. Percentage ERα remaining reports the remaining ERα protein measured at 10 μM concentration of the ligand as described above. The column ERα IC50 reports the inflection point of the degradation in response to the ligand concentration.

Setting [1] is: MCF7 cells, ER reporter gene, 0.1 nM 17β estradiol, 24 hours, read-out: MCF7 IC50 (inflection point of the inhibition of transcription in MCF7 cells).
Where [2] appears, read: comparison of groups at the X position, read-out: IC50 MCF7 μM (antagonist activity).
[3] abbreviates: comparison of groups at the X position.
[4] abbreviates: comparison of bond order between the phenyl and -C(O)OH, read-out: SERD IC50 MCF7 μM (antagonist activity).
Setting [5] is: comparison of bond order between the phenyl and -C(O)OH.

On to `Cn1cnc(/C=C/c2ccc(Oc3c(-c4ccc(O)cc4)sc4cc(O)ccc34)cc2)c1` [Example 73, (E)-2-(4-hydroxyphenyl)-3-(4-(2-(1-methyl-1H-imidazol-4-yl)vinyl)phenoxy)-benzo[b]thiophen-6-ol], for which, on ER (setting [1]), the IC50 was determined as 58 nM. Also, at ERα, the “% ERα remaining” value worked out at 32%.

Regarding `CCCn1cnc(/C=C/c2ccc(Oc3c(-c4ccc(O)cc4)sc4cc(O)ccc34)cc2)c1` [Example 74, (E)-2-(4-hydroxyphenyl)-3-(4-(2-(1-propyl-1H-imidazol-4-yl)vinyl)phenoxy)benzo [b]thiophen-6-ol], the IC50 on ER (setting [1]) came to 108 nM. For the same compound, the “% ERα remaining” value on ERα is on record as 41%.

With `CCCn1cncc1/C=C/c1ccc(Oc2c(-c3ccc(O)cc3)sc3cc(O)ccc23)cc1` [Example 75, (E)-2-(4-hydroxyphenyl)-3-(4-(2-(1-propyl-1H-imidazol-5-yl)vinyl)phenoxy)benzo[b] thiophen-6-ol], the IC50 at ER (setting [1]) amounted to 10 nM. In addition, on ERα, the “% ERα remaining” value is reported as 42%.

As to `Cc1cc(F)ccc1-c1sc2cc(O)ccc2c1Oc1ccc(/C=C/c2nnc(C3CC3)o2)cc1` [Example 76, (E)-3-(4-(2-(5-cyclopropyl-1,3,4-oxadiazol-2-yl)vinyl)phenoxy)-2-(4-fluoro-2-methylphenyl)benzo[b]-thiophen-6-ol], the IC50 on ER (setting [1]) was determined as 16 nM. Besides, the “% ERα remaining” value on ERα was determined as 36%.

Turning to `O=C(O)/C=C/c1ccc(-c2c(-c3ccc(O)cc3)sc3cc(O)ccc23)cc1` [reference compound], the IC50 on ER (setting [2]) was greater than 10000 nM. The “ER Percentage remaining (degradation potential)” value (“ER Percentage remaining” for short) at ERα (setting [3]) was 76%.

In the case of `O=C(O)/C=C/c1ccc(C(=O)c2c(-c3ccc(O)cc3)sc3cc(O)ccc23)cc1` [reference compound], the IC50 on ER (setting [2]) is greater than 10000 nM. Also, the “ER Percentage remaining” value on ERα (setting [3]) is reported as 60%.

For the compound `O=C(O)c1ccc(Oc2c(-c3ccc(O)cc3)sc3cc(O)ccc23)cc1` [reference compound], the IC50 on ER (setting [4]) is no less than 10000 nM. Besides, the “ER Percentage remaining” value at ERα (setting [5]) was found to be 57%.

As for `O=C(O)CCCc1ccc(Oc2c(-c3ccc(O)cc3)sc3cc(O)ccc23)cc1` [reference compound], the IC50 on ER (setting [4]) is no less than 10000 nM. The “ER Percentage remaining” value on ERα (setting [5]) is reported as 55%.
